Laboratory results: patent US20090233975A1, “Hair resiliency/body improver and hair cosmetic” (priority 2005, published 2009)

Test system: KAP5.1 gene
Assay: KAP5.1 reporter assay (dual luciferase, pGL3-KAP5.1 in IORS cells)
Assay type: cell-based, human
Conditions: overnight culture, negative control K-SFM(−) = 100
Procedure: A DNA fragment of about 15 kb containing KAP5.1 gene and KAP5.2 gene was amplified by PCR using an NM-F1 primer (SEQ ID NO. 6), in which the recognition sites of restriction endonuclease NotI and MluI were added to the 5′-terminal thereof, and an R2 primer (SEQ ID NO. 7), and using commercially available human genomic DNA (obtained from Promega) as the template (FIG. 1-A).
The amplified DNA fragment was double-digested with restriction endonucleases MluI and NheI, and a DNA fragment of about 4.9 kb was recovered following separation by agarose gel electrophoresis. This DNA fragment was cloned between the MluI and NheI sites of reporter vector pGL-3basic (obtained from Promega) having a gene that encodes firefly luciferase (FIG. 1-B). Reporter plasmid pGL-3-KAP5.1 containing the 5′ upstream region (SEQ ID NO. 8) of KAP5.1 was then constructed by subcloning [Step 1: subcloning of SacI/NcoI fragment (154 bp, FIG. 2) to pGL-3basic; Step 2: insertion of ScaI fragment (about 4.0 kbp, FIG. 2) into resulting plasmid] (FIG. 2).
8×10^5 immortalized outer root sheath (IORS) cells (obtained in accordance with Japanese Unexamined Patent Publication (Kokai) No. 2000-89) were seeded into a 75 cm^2 flask and cultured for 6 days under conditions of 37° C. and 5% CO2. Keratinocyte-SFM medium (Gibco) was used as the medium.
Day 1: Plasmid DNA Transfection (transient). The cultured IORS cells were dually transformed with the previously constructed reporter plasmid pGL3-KAP5.1 (firefly luciferase) and commercially available internal standard plasmid pRL-TK (renilla luciferase) in accordance with the manual provided with Effectene Transfection Reagent (Qiagen).
Day 2: The transformed cells were re-seeded into in a 24-well multiwell plate at 10 to 16×10^4 cells per well and cultured overnight under conditions of 37° C. and 5% CO2.
Day 3: The medium in each well was replaced with a basal medium in which each drug was dissolved followed by culturing overnight under conditions of 37° C. and 5% CO2.
Day 4: Assay. Luciferase activity was assayed for each well using the Dual-Luciferase Reporter Assay System (Promega) in accordance with the manual provided by the manufacturer. The AutoLumat LB953 (Berthold) was used for the luminometer.
An assay was carried out under the same conditions with the exception of not containing drug as a negative control [K-SFM(−)]. The effect of increasing gene expression are represented in the form of the rate of increase (ratio based on a value of 100 for the negative control).

Cc1cc(N)no1 [3-amino-5-methylisoxazole]
Rate of Increase (KAP5.1 gene expression, ratio based on a value of 100 for the negative control) (10 ppm drug): 120
Rate of Increase (KAP5.1 gene expression, ratio based on a value of 100 for the negative control) (100 ppm drug): 140
Rate of Increase (KAP5.1 gene expression, ratio based on a value of 100 for the negative control) (300 ppm drug): 160

CC(=O)Nc1nccs1 [2-acetamidothiazole]
Rate of Increase (KAP5.1 gene expression, ratio based on a value of 100 for the negative control) (10 ppm drug): 130
Rate of Increase (KAP5.1 gene expression, ratio based on a value of 100 for the negative control) (100 ppm drug): 180

CC(=O)Nc1nc(C)cs1 [2-acetamido-4-methylthiazole]
Rate of Increase (KAP5.1 gene expression, ratio based on a value of 100 for the negative control) (10 ppm drug): 110
Rate of Increase (KAP5.1 gene expression, ratio based on a value of 100 for the negative control) (100 ppm drug): 150

CC(=O)Nc1cc(C)on1 [3-acetamido-5-methylisoxazole]
Rate of Increase (KAP5.1 gene expression, ratio based on a value of 100 for the negative control) (10 ppm drug): 100
Rate of Increase (KAP5.1 gene expression, ratio based on a value of 100 for the negative control) (100 ppm drug): 110
Rate of Increase (KAP5.1 gene expression, ratio based on a value of 100 for the negative control) (300 ppm drug): 125

Nc1nccs1 [2-aminothiazole]
Rate of Increase (KAP5.1 gene expression, ratio based on a value of 100 for the negative control) (10 ppm drug): 110
Rate of Increase (KAP5.1 gene expression, ratio based on a value of 100 for the negative control) (100 ppm drug): 140
